Experimental data as given in patent publication US9120804B2, “8-substituted 2-amino-[1,2,4] triazolo [1, 5-A] pyrazines as Syk tryrosine kinase inhibitors and GCN2 serin kinase inhibitors” (Merck Patent GmbH, priority 2012, dated 2015).

Columns and labels:
GCN2 = GCN2 (Homo sapiens, UniProt Q9P2K8); assay: GCN2 enzyme assay; format: biochemical
SYK = target: T1, SYK (Homo sapiens, UniProt P43405); assay: SYK flash plate assay (enzyme assay); format: biochemical
T1 construct: 2.5 nM SYK, 400 nM Biotin-Aha-Aha-KEDPDYEWPSAKK
How it was run: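 Radiometric Flashplate format: biotinylated peptide substrate (400 nM) and 33P-labelled ATP (10 μM) react with 2.5 nM enzyme for 1 hour at 30 °C in Hepes buffer, pH 7.5. After EDTA quench and washing, counts are taken; staurosporine defines non-specific signal, and IC50 values are derived.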

Chain of GCN2 (Q9P2K8 whole entry): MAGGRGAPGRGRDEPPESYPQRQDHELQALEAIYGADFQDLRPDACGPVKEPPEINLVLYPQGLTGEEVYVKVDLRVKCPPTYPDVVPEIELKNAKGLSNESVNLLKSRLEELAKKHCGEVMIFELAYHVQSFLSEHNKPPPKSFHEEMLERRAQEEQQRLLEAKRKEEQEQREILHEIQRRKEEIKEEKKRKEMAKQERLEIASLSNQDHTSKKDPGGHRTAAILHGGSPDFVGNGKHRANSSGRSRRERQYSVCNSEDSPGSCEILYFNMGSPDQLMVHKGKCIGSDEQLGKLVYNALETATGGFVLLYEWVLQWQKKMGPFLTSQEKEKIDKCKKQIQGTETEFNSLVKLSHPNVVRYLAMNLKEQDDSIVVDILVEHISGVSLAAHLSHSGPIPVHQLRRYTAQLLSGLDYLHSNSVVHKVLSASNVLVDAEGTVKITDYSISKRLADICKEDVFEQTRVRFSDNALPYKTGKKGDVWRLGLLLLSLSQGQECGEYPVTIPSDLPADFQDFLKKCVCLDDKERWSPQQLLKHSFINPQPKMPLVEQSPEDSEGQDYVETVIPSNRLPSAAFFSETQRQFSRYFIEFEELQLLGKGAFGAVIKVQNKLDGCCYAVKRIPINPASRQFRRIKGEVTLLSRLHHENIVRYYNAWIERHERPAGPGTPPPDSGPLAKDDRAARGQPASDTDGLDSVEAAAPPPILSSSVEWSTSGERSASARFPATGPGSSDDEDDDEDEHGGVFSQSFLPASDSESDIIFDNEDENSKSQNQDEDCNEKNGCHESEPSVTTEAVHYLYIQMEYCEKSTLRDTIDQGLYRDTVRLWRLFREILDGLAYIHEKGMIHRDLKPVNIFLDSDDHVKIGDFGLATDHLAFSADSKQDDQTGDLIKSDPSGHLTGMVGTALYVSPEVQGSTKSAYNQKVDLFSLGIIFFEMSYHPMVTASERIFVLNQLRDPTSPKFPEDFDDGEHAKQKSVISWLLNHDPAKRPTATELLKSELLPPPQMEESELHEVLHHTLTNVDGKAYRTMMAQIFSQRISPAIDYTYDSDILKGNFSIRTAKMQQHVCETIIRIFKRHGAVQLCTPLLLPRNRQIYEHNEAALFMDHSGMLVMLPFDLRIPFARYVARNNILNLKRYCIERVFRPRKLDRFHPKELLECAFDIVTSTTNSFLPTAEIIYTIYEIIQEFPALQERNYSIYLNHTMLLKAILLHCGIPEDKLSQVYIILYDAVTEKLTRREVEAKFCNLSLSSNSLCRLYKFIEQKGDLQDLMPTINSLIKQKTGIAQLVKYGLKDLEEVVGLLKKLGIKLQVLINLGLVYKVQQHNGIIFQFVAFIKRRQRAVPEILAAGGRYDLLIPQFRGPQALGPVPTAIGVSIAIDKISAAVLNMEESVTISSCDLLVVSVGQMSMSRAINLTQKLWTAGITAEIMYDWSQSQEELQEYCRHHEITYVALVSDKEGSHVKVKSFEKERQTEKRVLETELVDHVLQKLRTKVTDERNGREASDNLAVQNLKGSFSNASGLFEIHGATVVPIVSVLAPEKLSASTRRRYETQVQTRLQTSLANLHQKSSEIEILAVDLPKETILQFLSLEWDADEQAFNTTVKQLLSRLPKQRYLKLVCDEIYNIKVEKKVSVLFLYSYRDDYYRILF

| IC50 (GCN2) [µM] | IC50 (SYK) [µM] | SMILES |
| --- | --- | --- |
| 0.3 to 3 | < 0.1 | Cn1cc(-c2nccn3nc(Nc4ccc5c(c4)NC(=O)CC5(C)C)nc23)cn1 [C144, 4,4-dimethyl-7-[8-(1-methyl-1H-pyrazol-4-yl)-[1,2,4]triazolo[1,5-a]pyrazin-2-ylamino]-3,4-dihydro-1H-quinolin-2-one] |
| 0.3 to 3 | < 0.1 | CC1(C)C(=O)Nc2cc(Nc3nc4c(-c5cn[nH]c5)nccn4n3)ccc21 [C67, 3,3-dimethyl-6-[8-(1H-pyrazol-4-yl)-[1,2,4]triazolo[1,5-a]pyrazin-2-ylamino]-1,3-dihydro-indol-2-one] |
| 3 to 50 | 0.3 to 3 | Cn1cc(-c2nccn3nc(Nc4ccc5c(C(=O)C(F)(F)F)c[nH]c5c4)nc23)cn1 [C112, 2,2,2-trifluoro-1-{6-[8-(1-methyl-1H-pyrazol-4-yl)-[1,2,4]triazolo[1,5-a]pyrazin-2-ylamino]-1H-indol-3-yl}-ethanone] |
| 3 to 50 | 0.3 to 3 | CN(c1nccn2nc(Nc3ccc4c(c3)NC(=O)C4(C)C)nc12)C1CCCCC1 [C78, 6-[8-(cyclohexyl-methyl-amino)-[1,2,4]triazolo[1,5-a]pyrazin-2-ylamino]-3,3-dimethyl-1,3-dihydro-indol-2-one] |
| 3 to 50 | 3 to 50 | COc1cc(Nc2nc3c(N4CCN(C(C)=O)CC4)nccn3n2)cc(OC)c1 [C51, 1-{4-[2-(3,5-dimethoxy-phenylamino)-[1,2,4]triazolo[1,5-a]pyrazin-8-yl]-piperazin-1-yl}-ethanone] |
| 3 to 50 | < 0.1 | CC1(C)C(=O)Nc2cc(Nc3nc4c(N5CCC6(COC6)C5)nccn4n3)ccc21 [C81, 3,3-dimethyl-6-[8-(2-oxa-6-aza-spiro[3.4]oct-6-yl)-[1,2,4]triazolo[1,5-a]pyrazin-2-ylamino]-1,3-dihydro-indol-2-one] |
| 3 to 50 | 3 to 50 | COc1cccc(Nc2nc3c(-c4cnn(C)c4)nccn3n2)c1 [C8, (3-Methoxy-phenyl)-[8-(1-methyl-1H-pyrazol-4-yl)-[1,2,4]triazolo[1,5-a]pyrazin-2-yl]-amine] |
| 3 to 50 | 0.3 to 3 | Cn1cc(-c2nccn3nc(Nc4ccc(S(C)(=O)=O)cc4)nc23)cn1 [C23, (4-Methanesulfonyl-phenyl)-[8-(1-methyl-1H-pyrazol-4-yl)-[1,2,4]triazolo[1,5-a]pyrazin-2-yl]-amine] |
| 3 to 50 | 0.3 to 3 | CC1(C)C(=O)Nc2cc(Nc3nc4c(N5CC[C@H](N)C5)nccn4n3)ccc21 [C86, 6-[8-((S)-3-amino-pyrrolidin-1-yl)-[1,2,4]triazolo[1,5-a]pyrazin-2-ylamino]-3,3-dimethyl-1,3-dihydro-indol-2-one] |
| 0.3 to 3 | 0.3 to 3 | Cn1cc(-c2nccn3nc(Nc4ccc5c(c4)NC(=O)C5)nc23)cn1 [C60, 6-[8-(1-methyl-1H-pyrazol-4-yl)-[1,2,4]triazolo[1,5-a]pyrazin-2-ylamino]-1,3-dihydro-indol-2-one] |
| 3 to 50 | 0.3 to 3 | COc1cc(Nc2nc3c(N4CCN(C)CC4c4ccccc4)nccn3n2)cc(OC)c1 (stereo not drawn) [C55, (3,5-dimethoxy-phenyl)-[8-(4-methyl-2-phenyl-piperazin-1-yl)-[1,2,4]triazolo[1,5-a]pyrazin-2-yl]-amine] |
| 3 to 50 | 0.3 to 3 | Cn1cc(-c2nccn3nc(Nc4ccc5cnn(C)c5c4)nc23)cn1 [C21, (1-Methyl-1H-indazol-6-yl)-[8-(1-methyl-1H-pyrazol-4-yl)-[1,2,4]triazolo[1,5-a]pyrazin-2-yl]-amine] |
| 0.3 to 3 | 0.1 to 0.3 | Cn1cc(-c2nccn3nc(Nc4ccc5cc[nH]c5c4)nc23)cn1 [C111] |
| 3 to 50 | 3 to 50 | O=C(c1ccc(-c2nccn3nc(Nc4ccc(N5CCOCC5)cc4)nc23)cc1)N1CCOCC1 [C41, morpholin-4-yl-{4-[2-(4-morpholin-4-yl-phenylamino)-[1,2,4]triazolo[1,5-a]pyrazin-8-yl]-phenyl}-methanone] |
| 3 to 50 | < 0.1 | CC1(C)OC(=O)Nc2cc(Nc3nc4c(N5CCC6(C5)NC(=O)NC6=O)nccn4n3)ccc21 (stereo not drawn) [C118, 7-[2-(4,4-dimethyl-2-oxo-1,4-dihydro-2H-benzo[d][1,3]oxazin-7-ylamino)-[1,2,4]triazolo[1,5-a]pyrazin-8-yl]-1,3,7-triaza-spiro[4.4]nonane-2,4-dione] |
| 0.3 to 3 | 0.1 to 0.3 | Cn1cc(-c2nccn3nc(Nc4ccc(C5(C#N)CC5)cc4)nc23)cn1 [C63, 1-{4-[8-(1-methyl-1H-pyrazol-4-yl)-[1,2,4]triazolo[1,5-a]pyrazin-2-ylamino]-phenyl}-cyclopropanecarbonitrile] |
| 3 to 50 | < 0.1 | CC1(C)C(=O)Nc2cc(Nc3nc4c(N5CC6(COC6)C5)nccn4n3)ccc21 [C91, 3,3-dimethyl-6-[8-(2-oxa-6-aza-spiro[3.3]hept-6-yl)-[1,2,4]triazolo[1,5-a]pyrazin-2-ylamino]-1,3-dihydro-indol-2-one] |

| IC50 (GCN2) [µM] | IC50 (SYK) [µM] | SMILES |
| --- | --- | --- |
| 0.3 to 3 | 0.1 to 0.3 | Cn1cc(-c2nccn3nc(Nc4ccc5c(c4)NC(=O)C5(C)O)nc23)cn1 (stereo not drawn) [C71, 3-hydroxy-3-methyl-6-[8-(1-methyl-1H-pyrazol-4-yl)-[1,2,4]triazolo[1,5-a]pyrazin-2-ylamino]-1,3-dihydro-indol-2-one] |
| 3 to 50 | 0.1 to 0.3 | CC1(C)C(=O)Nc2cc(Nc3nc4c(N5CC[C@H](O)C5)nccn4n3)ccc21 [C83, 6-[8-((S)-3-hydroxy-pyrrolidin-1-yl)-[1,2,4]triazolo[1,5-a]pyrazin-2-ylamino]-3,3-dimethyl-1,3-dihydro-indol-2-one] |
| 0.3 to 3 | 0.3 to 3 | Cn1cc(-c2nccn3nc(Nc4ccc5nnn(C)c5c4)nc23)cn1 [C30, (3-Methyl-3H-benzotriazol-5-yl)-[8-(1-methyl-1H-pyrazol-4-yl)-[1,2,4]triazolo[1,5-a]pyrazin-2-yl]-amine] |
| 3 to 50 | < 0.1 | CC1(C)C(=O)Nc2cc(Nc3nc4c(N5CCC6(C5)NC(=O)NC6=O)nccn4n3)ccc21 (stereo not drawn) [C108, 7-[2-(3,3-dimethyl-2-oxo-2,3-dihydro-1H-indol-6-ylamino)-[1,2,4]triazolo[1,5-a]pyrazin-8-yl]-1,3,7-triaza-spiro[4.4]nonane-2,4-dione] |
| 0.3 to 3 | 0.1 to 0.3 | CC(C)C(O)c1n[nH]c2cc(Nc3nc4c(-c5cnn(C)c5)nccn4n3)ccc12 (stereo not drawn) [C142, 2-methyl-1-{6-[8-(1-methyl-1H-pyrazol-4-yl)-[1,2,4]triazolo[1,5-a]pyrazin-2-ylamino]-1H-indazol-3-yl}-propan-1-ol] |
| 3 to 50 | < 0.1 | CC1(C)C(=O)Nc2cc(Nc3nc4c(N[C@H]5CCCNC5)nccn4n3)ccc21 [C85, 3,3-dimethyl-6-[8-((S)-piperidin-3-ylamino)-[1,2,4]triazolo[1,5-a]pyrazin-2-ylamino]-1,3-dihydro-indol-2-one] |
| 0.3 to 3 | 0.1 to 0.3 | Cn1cc(-c2nccn3nc(Nc4ccc(C(C)(C)O)cc4)nc23)cn1 [C61, 2-{4-[8-(1-methyl-1H-pyrazol-4-yl)-[1,2,4]triazolo[1,5-a]pyrazin-2-ylamino]-phenyl}-propan-2-ol] |
| 0.3 to 3 | 3 to 50 | Cc1nc2cc(Nc3nc4c(-c5ccc(C(=O)N6CCOCC6)cc5)nccn4n3)ccc2[nH]1 [C48, {4-[2-(2-methyl-1H-benzoimidazol-5-ylamino)-[1,2,4]triazolo[1,5-a]pyrazin-8-yl]-phenyl}-morpholin-4-yl-methanone] |
| 3 to 50 | 0.1 to 0.3 | CN(c1nccn2nc(Nc3ccc4c(c3)NC(=O)C4(C)C)nc12)C1CCOCC1 [C101, 3,3-dimethyl-6-{8-[methyl-(tetrahydro-pyran-4-yl)-amino]-[1,2,4]triazolo[1,5-a]pyrazin-2-ylamino}-1,3-dihydro-indol-2-one] |
| 3 to 50 | 0.1 to 0.3 | NC(=O)C1(c2ccc(Nc3nc4c(-c5cn[nH]c5)nccn4n3)cc2)CC1 [C66, 1-{4-[8-(1H-pyrazol-4-yl)-[1,2,4]triazolo[1,5-a]pyrazin-2-ylamino]-phenyl}-cyclopropanecarboxylic acid amide] |
| 3 to 50 | 0.3 to 3 | COc1cc(Nc2nc3c(N4CCC(N)CC4)nccn3n2)cc(OC)c1 [C50, [8-(4-amino-piperidin-1-yl)-[1,2,4]triazolo[1,5-a]pyrazin-2-yl]-(3,5-dimethoxy-phenyl)-amine] |
| 3 to 50 | 0.1 to 0.3 | CC1(C)C(=O)Nc2cc(Nc3nc4c(N5CCC[C@H]5CO)nccn4n3)ccc21 [C84, 6-[8-((S)-2-hydroxymethyl-pyrrolidin-1-yl)-[1,2,4]triazolo[1,5-a]pyrazin-2-ylamino]-3,3-dimethyl-1,3-dihydro-indol-2-one] |
| 0.3 to 3 | < 0.1 | CC(C)C(O)(c1n[nH]c2cc(Nc3nc4c(-c5cnn(C)c5)nccn4n3)ccc12)C(C)C [C141, 2,4-dimethyl-3-{6-[8-(1-methyl-1H-pyrazol-4-yl)-[1,2,4]triazolo[1,5-a]pyrazin-2-ylamino]-1H-indazol-3-yl}-pentan-3-ol] |
|  | 0.1 to 0.3 | CN1CCC(C)(C)c2cc(-c3nccn4nc(Nc5ccc6c(c5)NC(=O)C6(C)C)nc34)ccc21 [E143, 3,3-dimethyl-6-[8-(1,4,4-trimethyl-1,2,3,4-tetrahydro-quinolin-6-yl)-[1,2,4]triazolo[1,5-a]pyrazin-2-ylamino]-1,3-dihydro-indol-2-one] |
|  | < 0.1 | CC1(C)C(=O)Nc2cc(Nc3nc4c(-c5cnn(C6CCNCC6)c5)nccn4n3)ccc21 [E150, 3,3-dimethyl-6-[8-(1-piperidin-4-yl-1H-pyrazol-4-yl)-[1,2,4]triazolo[1,5-a]pyrazin-2-ylamino]-1,3-dihydro-indol-2-one] |
|  | 0.1 to 0.3 | CC1(C)C(=O)Nc2cc(Nc3nc4c(N5CC6(C5)NC(=O)NC6=O)nccn4n3)ccc21 [C109, 2-[2-(3,3-dimethyl-2-oxo-2,3-dihydro-1H-indol-6-ylamino)-[1,2,4]triazolo[1,5-a]pyrazin-8-yl]-2,5,7-triaza-spiro[3.4]octane-6,8-dione] |
